Laboratory results from ChEMBL document CHEMBL1201862, “PubChem BioAssay data set” (2004).
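Protocol summary: plate cells (96-well), add compound at 5 concentrations, incubate 48 h, interpolate endpoints linearly. Abbreviation: GI50, concentration required for 50% inhibition of growth.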 Calls of active or inactive are those of the source. No stated cut-off is given here; in the data, active = GI50 up to about 1.1 µM and inactive = higher.

Legend:
Experiment in all cases: NCI tumour cell line growth inhibition, 48 h
[1] = test system: 786-0
[2] = test system: A498
[3] = test system: A549
[4] = test system: ACHN
[5] = test system: BT-549
[6] = test system: CAKI-1
[7] = test system: CCRF-CEM
[8] = test system: COLO 205
[9] = test system: DU-145
[10] = test system: EKVX
[11] = test system: HCC 2998
[12] = test system: HCT-116
[13] = test system: HCT-15
[14] = test system: HL-60
[15] = test system: HOP-62
[16] = test system: HOP-92
[17] = test system: HT-29
[18] = test system: Hs-578T
[19] = test system: IGROV-1
[20] = test system: K562
[21] = test system: KM12
[22] = test system: LOX IMVI
[23] = test system: M14
[24] = test system: MCF7
[25] = test system: MDA-MB-231
[26] = test system: MDA-MB-435
[27] = test system: MDA-N
[28] = test system: MOLT-4
[29] = test system: Malme-3M
[30] = test system: NCI-H226
[31] = test system: NCI-H23
[32] = test system: NCI-H460
[33] = test system: NCI-H522
[34] = test system: NCI/ADR-RES
[35] = test system: OVCAR-3
[36] = test system: OVCAR-4
[37] = test system: OVCAR-5
[38] = test system: OVCAR-8
[39] = test system: PC-3
[40] = test system: RPMI-8226
[41] = test system: RXF 393
[42] = test system: SF-268
[43] = test system: SF-295
[44] = test system: SF-539
[45] = test system: SK-MEL-28
[46] = test system: SK-MEL-2
[47] = test system: SK-MEL-5
[48] = test system: SK-OV-3
[49] = test system: SN12C
[50] = test system: SNB-19
[51] = test system: SNB-75
[52] = test system: SR
[53] = test system: SW-620
[54] = test system: T47D
[55] = test system: TK-10
[56] = test system: U-251
[57] = test system: UACC-257
[58] = test system: UACC-62
[59] = test system: UO-31

With `O=c1n(-c2ccc(Cl)c(Cl)c2)c(=O)n(-c2ccc(Cl)c(Cl)c2)c(=O)n1-c1ccc(Cl)c(Cl)c1` the GI50 [1] was 2.78 µM (inactive), the GI50 [2] was 2.73 µM (inactive) and the GI50 [3] was 2.09 µM (inactive). The GI50 [4] was 2.39 µM (inactive), the GI50 [5] was 2.88 µM (inactive) and the GI50 [6] was 3.49 µM (inactive). For the same molecule, the GI50 [7] was 1.15 µM (inactive), the GI50 [8] was 0.719 µM (active) and the GI50 [9] was 4.01 µM (inactive). For the same molecule, the GI50 [10] was 3.5 µM (inactive), the GI50 [11] was 2.2 µM (inactive) and the GI50 [12] was 1.2 µM (inactive). The GI50 [13] was 1580 nM, the GI50 [14] was 2.89 µM (inactive) and the GI50 [15] was 3.67 µM (inactive). For the same molecule, the GI50 [16] was 0.0144 µM (active), the GI50 [17] was 2.59 µM (inactive) and the GI50 [18] was 2.96 µM (inactive). The GI50 [19] was 3.21 µM (inactive), the GI50 [20] was 2.06 µM (inactive) and the GI50 [21] was 2.91 µM (inactive). For the same molecule, the GI50 [22] was 2.55 µM (inactive), the GI50 [23] was 3.2 µM (inactive) and the GI50 [24] was 1.82 µM (inactive). For the same molecule, the GI50 [25] was 1.8 µM (inactive), the GI50 [26] was 3.93 µM (inactive) and the GI50 [27] was 2.9 µM (inactive). The GI50 [28] was 1.87 µM (inactive), the GI50 [29] was 3.3 µM (inactive) and the GI50 [30] was 2.82 µM (inactive). The GI50 [31] was 1.5 µM (inactive), the GI50 [32] was 1.59 µM (inactive) and the GI50 [33] was 3.52 µM (inactive). For the same molecule, the GI50 [34] was 3.1 µM (inactive), the GI50 [35] was 2.99 µM (inactive) and the GI50 [36] was 3.94 µM (inactive). For the same molecule, the GI50 [37] was 3.63 µM (inactive), the GI50 [38] was 3.54 µM (inactive) and the GI50 [39] was 0.703 µM (active). For the same molecule, the GI50 [40] was 0.558 µM (active), the GI50 [41] was 3.21 µM (inactive) and the GI50 [42] was 2.45 µM (inactive). For the same molecule, the GI50 [43] was 2.47 µM (inactive), the GI50 [44] was 0.769 µM (active) and the GI50 [45] was 4.16 µM (inactive). The GI50 [46] was 2.15 µM (inactive), the GI50 [47] was 1.9 µM (inactive) and the GI50 [48] was 2.11 µM (inactive). For the same molecule, the GI50 [49] was 3.09 µM (inactive), the GI50 [50] was 5.01 µM (inactive) and the GI50 [51] was 2.53 µM (inactive). The GI50 [52] was 3.55 µM (inactive), the GI50 [53] was 3.15 µM (inactive) and the GI50 [54] was 1.57 µM (inactive). For the same molecule, the GI50 [55] was 5.53 µM (inactive), the GI50 [56] was 3.71 µM (inactive) and the GI50 [57] was 0.736 µM (active). For the same molecule, the GI50 [58] was 4.27 µM (inactive) and the GI50 [59] was 2.76 µM (inactive).
For `Cc1ccc2nc(CC(=O)c3ccc4ccccc4c3)c(O)nc2c1`, the GI50 [1] was > 100 µM (inactive), the GI50 [2] was > 100 µM (inactive) and the GI50 [3] was > 100 µM (inactive). The GI50 [4] was > 100 µM (inactive), the GI50 [5] was > 100 µM (inactive) and the GI50 [6] was > 100 µM (inactive). For the same molecule, the GI50 [7] was > 100 µM (inactive), the GI50 [8] was > 100 µM (inactive) and the GI50 [9] was > 100 µM (inactive). For the same molecule, the GI50 [10] was > 100 µM (inactive), the GI50 [11] was > 100 µM (inactive) and the GI50 [12] was > 100 µM (inactive). The GI50 [13] was greater than 100000 nM, the GI50 [14] was > 100 µM (inactive) and the GI50 [15] was > 100 µM (inactive). For the same molecule, the GI50 [16] was > 100 µM (inactive), the GI50 [17] was 66.2 µM (inactive) and the GI50 [18] was > 100 µM (inactive). The GI50 [19] was > 100 µM (inactive), the GI50 [20] was > 100 µM (inactive) and the GI50 [21] was > 100 µM (inactive). For the same molecule, the GI50 [22] was > 100 µM (inactive), the GI50 [23] was > 100 µM (inactive) and the GI50 [24] was > 100 µM (inactive). For the same molecule, the GI50 [25] was > 100 µM (inactive), the GI50 [26] was > 100 µM (inactive) and the GI50 [27] was > 100 µM (inactive). For the same molecule, the GI50 [28] was > 100 µM (inactive), the GI50 [29] was > 100 µM (inactive) and the GI50 [30] was > 100 µM (inactive). The GI50 [31] was > 100 µM (inactive), the GI50 [32] was > 100 µM (inactive) and the GI50 [33] was > 100 µM (inactive). The GI50 [34] was > 100 µM (inactive), the GI50 [35] was > 100 µM (inactive) and the GI50 [36] was > 100 µM (inactive). The GI50 [37] was > 100 µM (inactive), the GI50 [38] was > 100 µM (inactive) and the GI50 [39] was > 100 µM (inactive). For the same molecule, the GI50 [40] was > 100 µM (inactive), the GI50 [41] was > 100 µM (inactive) and the GI50 [42] was > 100 µM (inactive). The GI50 [43] was > 100 µM (inactive), the GI50 [44] was > 100 µM (inactive) and the GI50 [45] was > 100 µM (inactive). The GI50 [46] was > 100 µM (inactive), the GI50 [47] was > 100 µM (inactive) and the GI50 [48] was > 100 µM (inactive). For the same molecule, the GI50 [49] was > 100 µM (inactive), the GI50 [50] was > 100 µM (inactive) and the GI50 [51] was > 100 µM (inactive). For the same molecule, the GI50 [52] was > 100 µM (inactive), the GI50 [53] was > 100 µM (inactive) and the GI50 [54] was > 100 µM (inactive). For the same molecule, the GI50 [55] was > 100 µM (inactive), the GI50 [56] was > 100 µM (inactive) and the GI50 [57] was > 100 µM (inactive). For the same molecule, the GI50 [58] was > 100 µM (inactive) and the GI50 [59] was > 100 µM (inactive).
